Tested on: Human neonate fibroblasts (ATCC cell line CCD-1079sk)
Experiment: Evaluation of cell membrane permeability function (fluorescence antibody technique, confocal microscopy)
Assay type: cell-based
Conditions: 3.5 μg/mL in liquid culture medium, cultured 2 hours, FIG. 2
Description: Human neonate fibroblasts (ATCC cell line CCD-1079sk) were used as the eukaryotic cells, and the cell membrane permeability capability of the 2 samples (constructs for transferring a foreign substance) obtained in Example 1 above was investigated.
More specifically, approximately 2×10^4 cells were cultured on a collagen-coated S-well slide overnight at 37° C. in 5% CO2 using a liquid culture medium (Eagle's MEM medium: comprising 0.1 mM NeAA, 1 mM sodium pyruvate, Earle's BSS (product of GIBCO) with 10% FBS (product of GIBCO).
The purified polypeptides obtained above were added to the cell culture (1.5 μg/mL of the polypeptide of Sample No. 1 and 3.5 μg/mL of the polypeptide of Sample No. 2), and culturing was continued for another 2 hours.
Then the supernatant was removed, the abovementioned D-PBS was added, and the cells were rinsed 3 times therewith on ice. Next, ice-cold methanol was added and the samples were let stand for 10 min at −20° C. to fix the cells. Then the methanol was removed, PBS solution containing 5% normal goat serum (product of MBL) was added, and blocking was carried out at room temperature for 1 hour. […]

Sample No. 2: Fusion polypeptide (SEQ ID NO: 7): Met, NoLS carrier KKRTLRKNDRKKR fused to N-terminal end of GFP, C-terminal polyhistidine tag
location of the polypeptide transferred into the cells (nuclear translocation) (anti-GFP antibody staining merged with DAPI): transferred (translocated) to the nucleus and localized therein
transfer of the polypeptide into the cells (anti-GFP antibody staining): transfer of the polypeptide into the cells can be seen

Source: patent US8603967B2, “Carrier peptide fragment and use thereof” (Toagosei Co., Ltd., priority 2009, dated 2013)
